Results as given in patent US4757069A, “Pyridazodiazepine derivatives” (Hoffmann-La Roche Inc., priority 1986, dated 1988).
Where a name gives a salt, the structure may show the parent alone.

Target: T1, Angiotensin converting enzyme (rabbit lung) (Oryctolagus cuniculus, UniProt P12822)
T1 construct: Angiotensin converting enzyme (rabbit lung); from tissue; host or cells: rabbit lung
T1 sequence (P12822 34-1310): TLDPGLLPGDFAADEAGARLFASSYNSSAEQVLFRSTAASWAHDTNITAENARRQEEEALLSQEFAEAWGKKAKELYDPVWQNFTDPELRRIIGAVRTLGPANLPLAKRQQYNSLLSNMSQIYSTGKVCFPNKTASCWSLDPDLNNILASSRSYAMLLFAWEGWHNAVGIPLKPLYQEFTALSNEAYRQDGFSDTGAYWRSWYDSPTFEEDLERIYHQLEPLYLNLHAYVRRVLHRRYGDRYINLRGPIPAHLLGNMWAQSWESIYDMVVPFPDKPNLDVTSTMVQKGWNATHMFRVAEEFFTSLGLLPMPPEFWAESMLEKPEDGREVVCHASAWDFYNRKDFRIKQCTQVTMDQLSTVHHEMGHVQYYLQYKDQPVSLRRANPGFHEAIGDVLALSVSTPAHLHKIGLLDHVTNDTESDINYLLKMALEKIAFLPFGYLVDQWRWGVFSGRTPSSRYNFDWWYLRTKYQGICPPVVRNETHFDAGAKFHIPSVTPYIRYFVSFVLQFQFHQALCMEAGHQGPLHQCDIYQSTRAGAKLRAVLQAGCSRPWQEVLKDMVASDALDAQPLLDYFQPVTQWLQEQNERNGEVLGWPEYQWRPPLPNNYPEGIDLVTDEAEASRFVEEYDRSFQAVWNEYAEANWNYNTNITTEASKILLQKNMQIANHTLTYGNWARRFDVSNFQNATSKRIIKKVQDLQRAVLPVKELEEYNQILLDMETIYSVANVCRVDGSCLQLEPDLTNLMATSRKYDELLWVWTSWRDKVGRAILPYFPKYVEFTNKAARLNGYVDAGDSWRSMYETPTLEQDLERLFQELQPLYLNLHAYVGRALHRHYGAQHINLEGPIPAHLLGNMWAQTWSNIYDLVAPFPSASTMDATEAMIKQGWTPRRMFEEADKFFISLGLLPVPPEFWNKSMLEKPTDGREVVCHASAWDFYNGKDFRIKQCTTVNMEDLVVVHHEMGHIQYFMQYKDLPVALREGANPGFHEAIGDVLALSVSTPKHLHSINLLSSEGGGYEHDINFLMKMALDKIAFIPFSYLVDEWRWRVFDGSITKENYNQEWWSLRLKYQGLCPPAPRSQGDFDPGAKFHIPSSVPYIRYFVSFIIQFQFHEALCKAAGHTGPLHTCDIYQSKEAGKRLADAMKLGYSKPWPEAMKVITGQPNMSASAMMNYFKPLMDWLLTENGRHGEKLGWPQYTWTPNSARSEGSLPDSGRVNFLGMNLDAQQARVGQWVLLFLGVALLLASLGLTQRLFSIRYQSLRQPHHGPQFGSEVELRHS
Test: Inhibition of angiotensin-converting enzyme in vitro (conversion of angiotensin I into angiotensin II, fluorescence)
Assay type: biochemical
Details: rabbit lung ACE; 90 min preincubation at 37° C., pH 7.5; angiotensin I 250 μmol; 30 min reaction; read-out: IC50 (concentration of test substance which reduces by 50% the conversion of angiotensin I into angiotensin II)
Description: The activity of the present pyridazodiazepine derivatives in inhibiting angiotensin-converting enzyme in vitro can be determined using the test now described.
The method used is based on the method of Santos, R. A. S., Kreiger, E. M., and Greene L. J., Hypertension (1985), 7, 244-252. Angiotensin converting enzyme (rabbit lung) is incubated in the presence or absence of various concentrations of a test substance for 90 minutes at 37° C. in 0.1M potassium phosphate buffer, pH 7.5, containing 30 mmol of sodium chloride. If the test substance is an ester, it is cleaved by treatment with hog liver esterase prior to carrying out the test. The reaction is initiated by adding angiotensin I to a final concentration of 250 μmol. The final volume of the reaction mixture is 0.25 ml. After holding the reaction mixture at 37° C. for 30 minutes the reaction is terminated by adding 1.45 ml of 0.3M sodium hydroxide solution. […] of a 0.2% (weight/volume) solution of o-phthaldialdehyde in methanol are added and, after 10 minutes, the solution is acidified with 200 μl of 3M hydrochloric acid. The resulting solution is then subjected to fluorescence spectrometry using excitation and emission wavelengths of 365 nm and 500 nm, respectively, and the IC50 value is calculated. The IC50 is that concentration of test substance which reduces by 50% the conversion of angiotensin I into angiotensin II.

IC50: 0.6 nM
Structure (SMILES): N=C(N)Nc1ccc(CC[C@H](N[C@H]2CCCN3CCC[C@@H](C(=O)O)N3C2=O)C(=O)O)cc1 [Example 1, 9(S)-[1(S)-carboxy-3-(4-guanidinophenyl)propylamino]-octahydro-10-oxo-6H-pyridazo[1,2-a][1,2]diazepine-1(S)-carboxylic acid dihydrobromide]
